ChEMBL document CHEMBL3616434, “Identification of Phenoxyalkylbenzimidazoles with Antitubercular Activity” (J Med Chem, 2015)
≈ marks a conversion by molar mass, not a printed value. Calls of active or inactive are those of the source. The calls are words filed in the database; no cut-off is given here.

Legend:
[1] = test system: Mycobacterium tuberculosis; assay: Antitubercular activity against Mycobacterium tuberculosis H37Rv ATCC 25618 under aerobic condition after 5 days; assay type: functional; details: H37Rv ATCC 25618, 120 h
[2] = test system: Mycobacterium tuberculosis; assay: Ratio of MBC to MIC for replicating Mycobacterium tuberculosis at 1 to 10 times MIC after 21 days; assay type: functional
[3] = test system: Mycobacterium tuberculosis; assay: Antitubercular activity against Mycobacterium tuberculosis H37Rv; assay type: functional
[4] = test system: Mycobacterium tuberculosis; assay: Bactericidal activity against replicating Mycobacterium tuberculosis assessed as log reduction CFU at 1 to 10 times MIC after 21 days; assay type: functional
[5] = Cytotoxicity against African green monkey Vero cells after 2 days by luminescent assay; assay type: cell-based; details: chlorocebus sabaeus, read-out: TC50
[6] = test system: Mycobacterium tuberculosis; assay: Bactericidal activity against nonreplicating Mycobacterium tuberculosis assessed as log reduction CFU at 1 to 10 times MIC after 21 days; assay type: functional
[7] = test system: Mycobacterium tuberculosis; assay: Bactericidal activity against nonreplicating Mycobacterium tuberculosis assessed as log reduction CFU at MIC after 21 days; assay type: functional
[8] = Selectivity index, ratio of TC50 for African green monkey Vero cells to MIC for Mycobacterium tuberculosis H37Rv ATCC 25618
[9] = Thermodynamic equilibrium solubility of the compound using 10 mM DMSO at pH 2; assay type: physicochemical; details: buffer, read-out: Therm_solubility
[10] = test system: Mycolicibacterium smegmatis; assay: Antimicrobial activity against Mycobacterium smegmatis MC2 155 after 5 to 7 days by serial proportion method; assay type: functional; details: str. MC2 155
[11] = Metabolic stability of the compound in rat liver microsomes assessed as compound turnover at 2 uM after 30 mins by LC-MS analysis; assay type: ADME; details: read-out: Drug metabolism
MDCK = assay: Passive permeability of the compound from apical to basolateral direction in MDCK cells at 10 uM in presence of P-gp inhibitor; assay type: ADME, cell-based, Canis lupus familiaris; details: dog
Staphylococcus aureus = assay: Antimicrobial activity against Staphylococcus aureus after 2 days by serial proportion method; assay type: functional; details: 48 h
[12] = Thermodynamic equilibrium solubility of the compound using 10 mM DMSO at pH 7.4; assay type: physicochemical; details: buffer, read-out: Therm_solubility
[13] = Fraction unbound in mouse plasma after 4.5 hrs by LC-MS/MS analysis; assay type: ADME, cell-free
Escherichia coli = assay: Antimicrobial activity against Escherichia coli after 1 day by serial proportion method; assay type: functional; details: 24 h
[14] = Metabolic stability of the compound in mouse liver microsomes assessed as compound turnover at 2 uM after 30 mins by LC-MS analysis; assay type: ADME; details: read-out: Drug metabolism
[15] = Thermodynamic equilibrium solubility of the compound using 10 mM DMSO at pH 6; assay type: physicochemical; details: buffer, read-out: Therm_solubility
[16] = test system: Mycobacterium tuberculosis; assay: Bactericidal activity against replicating Mycobacterium tuberculosis at 1 to 10 times MIC after 21 days; assay type: functional, organism-based
[17] = Metabolic stability of the compound in human liver microsomes assessed as compound turnover at 2 uM after 30 mins by LC-MS analysis; assay type: ADME; details: read-out: Drug metabolism
[18] = test system: Mycobacterium tuberculosis; assay: Antitubercular activity against Mycobacterium tuberculosis after 21 to 28 days by serial proportion method; assay type: functional

Which results are given for CCc1nc2ccccc2n1CCCOc1ccccc1?
MIC [1]: 5.2 µM (≈ 1.46 µg/mL); Ratio [2]: >4; MIC [3]: 3.4 µM (≈ 0.953 µg/mL); FC [4]: 2; CC50 at 48 h [5]: > 50 µM; FC [6]: >3; FC [7]: >3; Ratio [8]: >9.6

What does the source list for CCc1nc2ccccc2n1CCCCSc1nnc(-c2ccc(Cl)cc2)o1?
MIC [1]: 0.1 µM (≈ 0.0413 µg/mL); solubility thermodynamic [9]: 830 µg/mL (≈ 2010 µM); MIC99 [10]: > 100 µM; CC50 at 48 h [5]: 22 µM; metabolised at 0.5 h, 2 µM [11]: 99.9%; permeability (MDCK): 4.4%; MIC99 (Staphylococcus aureus): > 100 µM; FC [6]: >3; solubility thermodynamic [12]: < 1 µg/mL; fraction unbound at 4.5 h [13]: 0.006; MIC99 (Escherichia coli): > 100 µM; metabolised at 0.5 h, 2 µM [14]: 99.8%; solubility thermodynamic [15]: < 1 µg/mL; Activity [16]: inactive; metabolised at 0.5 h, 2 µM [17]: 99.9%; FC [7]: >3; MIC99 [18]: 2.5 µM (≈ 1.03 µg/mL); Ratio [8]: 220
